Measurements: patent US20250092044A1, “Kinase Inhibitors” (Incyte Corporation, priority 2023, published 2025)
Values after ≈ are worked out from the molar mass of the structure shown. Where two headings read alike, the source gives them in different places.

Tests used:
[1] = system: TRKA; assay: TRKA Enzymatic Assay; type: biochemical
Summary of the method: (§1)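 Reaction contained 0.58 nM TRKA, 1 mM ATP, 500 nM biotinylated TK substrate and 62.5 nM SEB reagent in HEPES 50 mM pH 7.0 with 10 mM MgCl2, 1 mM DTT and 0.1 mM orthovanadate, 0.5% DMSO, ATP-initiated. After 60 min at room temperature, the TR-FRET 665/620 nm ratio was read. IC50 was fitted from percent control activity versus log concentration, with DMSO and no-ATP wells as controls.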

[2] = biological target: TRKA (Homo sapiens (Human), UniProt P04629); assay: TRKA Enzymatic Assay; type: biochemical; details: 1 mM ATP
Chain of TRKA (Homo sapiens (Human), UniProt P04629) (P04629 33-796, species assumed): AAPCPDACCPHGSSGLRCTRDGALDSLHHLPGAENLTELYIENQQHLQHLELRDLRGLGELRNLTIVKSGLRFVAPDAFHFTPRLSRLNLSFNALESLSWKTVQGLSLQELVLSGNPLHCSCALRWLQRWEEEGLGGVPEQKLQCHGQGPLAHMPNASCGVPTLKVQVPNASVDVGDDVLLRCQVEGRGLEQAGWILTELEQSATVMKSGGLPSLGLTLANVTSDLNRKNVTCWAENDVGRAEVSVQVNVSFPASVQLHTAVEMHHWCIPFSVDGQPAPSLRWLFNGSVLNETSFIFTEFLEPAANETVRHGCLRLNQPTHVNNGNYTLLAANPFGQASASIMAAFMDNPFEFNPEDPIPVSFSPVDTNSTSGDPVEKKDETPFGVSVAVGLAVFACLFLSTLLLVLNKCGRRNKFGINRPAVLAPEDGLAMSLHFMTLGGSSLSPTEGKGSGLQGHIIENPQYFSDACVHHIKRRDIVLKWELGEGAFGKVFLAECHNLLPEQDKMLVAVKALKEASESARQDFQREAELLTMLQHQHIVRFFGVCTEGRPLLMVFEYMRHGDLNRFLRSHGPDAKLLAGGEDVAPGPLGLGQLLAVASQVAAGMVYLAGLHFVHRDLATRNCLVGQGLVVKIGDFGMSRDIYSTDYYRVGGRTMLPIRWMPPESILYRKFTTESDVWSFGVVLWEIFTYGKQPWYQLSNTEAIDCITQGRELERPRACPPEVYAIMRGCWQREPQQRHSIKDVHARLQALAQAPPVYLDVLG
Summary of the method: as §1

[3] = In Vivo Pharmacokinetics (rat); set-up: species or system Sprague Dawley rats; details: male, Sprague Dawley, plasma, PO 3.0 mg/kg
Procedure: Test compounds were administered to male Sprague Dawley rats or male and female Cynomolgus monkeys intravenously or via oral gavage. For intravenous (IV) dosing, test compounds were dosed at 1 mg/kg using a formulation of 10% dimethylacetamide (DMAC), 10% propylene glycol (PG) in acidified saline via IV bolus for rat or 10 min IV infusion for monkey. For oral (PO) dosing, test compounds were dosed at 3.0 mg/kg using 5% DMAC in 0.5% methylcellulose in citrate buffer (PH˜2.5). Blood samples were collected at predose and various time points up to 24 hours postdose. All blood samples were collected using EDTA as the anticoagulant and centrifuged to obtain plasma samples. The plasma concentrations of test compounds were determined by LC-MS/MS methods. The measured plasma concentrations were used to calculate PK parameters by standard noncompartmental methods using Phoenix® WinNonlin software program (version 8.0, Pharsight Corporation) or similar software. In rats and monkeys, cassette dosing of test compounds were conducted to obtain preliminary PK parameters. In vivo pharmacokinetic experiments with male beagle dogs may be performed under the conditions described above.

[4] = system: STAT5 (Tyr694) phosphorylation in SET-2 cells; assay: STAT5 (Tyr694) Phosphorylation Cell Based Assay; details: Homo sapiens, 2 hours, read-out: SET2 IC50
Summary of the method: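 SET-2 cells in RPMI with 10% FBS were exposed to compound for 2 h at 37 °C (0.5% DMSO final). After lysis, phospho-STAT5 (Tyr694) was read by HTRF (665/620 ratio) after 24 h antibody incubation at room temperature. IC50 was fitted from percent control activity versus log concentration.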

[5] = FaSSIF Solubility Assay; type: physicochemical; details: FaSSIF (fasted state simulated intestinal fluid), 25 °C, pH 6.5, fassif, thermodynamic from solid, FaSSIF pH=6.5, 25° C.
Source text: The FaSSIF (Fasted State Simulated Intestinal Fluid) solubility assay can predict how an oral drug is likely to be dissolved and potentially absorbed in the upper intestine after drinking a glass of water. FaSSIF solubility assay utilizes biorelevant intestinal media (Biorelevant, Part #FFF01) comprised of physiological surfactants, bile salts, and phospholipids that are present in the gastrointestinal fluids it mimics. FaSSIF (pH=6.5) has the average pH of a fasted intestinal fluid with similar osmolarity. The FaSSIF buffer was prepared by adding 20 mL of phosphate buffer to FaSSIF Powder. The buffer was then added to the dry compound of interest at a concentration of 1 mg/mL and then incubated at 25° C. for 24 hours in a Rototherm Plus (Part #H2024). After incubation, the Eppendorf tubes were centrifuged and run on an Agilent 1260 LC-MS. The LC-MS method is a 5 min gradient method of 2% to 95% acetonitrile with water (0.05% TFA) using a Sunfire C18, 5 um 2.1×50 mm (Part #186002539) column. A dry reference compound of interest was diluted to a known 1 mg/mL concentration in 1:1 of water and acetonitrile. Step-wise serial dilutions were performed and run on an Agilent 1260 LC-MS using the same conditions to make a standard curve. The area under the curve is reported for the compound of interest in FaSSIF buffer and the reference standards. Calculations were performed and the predicted solubility, μg/mL, was reported for compounds of the examples.

Row | SMILES | Selectivity TRKA/JH2 V617F [1] | IC50 [2] | AUC [3] | IC50 [4] | solubility at 24 h ([5]; read-out: Solubility Fassif) | solubility at 24 h ([5]; read-out: FaSSIF solubility)
1 | [2H]C([2H])([2H])N(Cc1ccc(-c2[nH]c3ncc4c(c3c2-c2ccc3c(c2)COC3(C)C)n([C@@H]2CC[C@@H](NC(=O)OC)C2)c(=O)n4C([2H])([2H])[2H])cc1)C([2H])([2H])[2H] [Example 29, Methyl ((1R,3R)-3-(7-(4-((bis(methyl-d3)amino)methyl)phenyl)-8-(1,1-dimethyl-1,3-dihydroisobenzofuran-5-yl)-3-(methyl-d3)-2-oxo-3,6-dihydroimidazo[4,5-d]pyrrolo[2,3-b]pyridin-1(2H)-yl)cyclopentyl)carbamate] | ****** (selectivity of >12500-fold) | 1250 to 2500 nM | ≤ 0.5 µM·h | ≤ 300 nM | > 500 µg/mL | 
2 | [2H]C([2H])([2H])N(Cc1ccc(-c2[nH]c3ncc4c(c3c2-c2ccc(OCCOC)cc2)n([C@@H]2CC[C@@H](NC(=O)OC)C2)c(=O)n4C([2H])([2H])[2H])cc1)C([2H])([2H])[2H] [Example 27, Methyl ((1R,3R)-3-(7-(4-((bis(methyl-d3)amino)methyl)phenyl)-8-(4-(2-methoxyethoxy)phenyl)-3-(methyl-d3)-2-oxo-3,6-dihydroimidazo[4,5-d]pyrrolo[2,3-b]pyridin-1(2H)-yl)cyclopentyl)carbamate] | ***** (selectivity of >5000-fold to ≤12500-fold) | 1250 to 2500 nM | 0.5 to 1.5 µM·h | ≤ 300 nM | > 500 µg/mL | 
3 | [2H]C([2H])([2H])N(Cc1ccc(-c2[nH]c3ncc4c(c3c2-c2ccc3c(c2)CC(C)(C)O3)n([C@@H]2CC[C@@H](NC(=O)OC)C2)c(=O)n4C([2H])([2H])[2H])cc1)C([2H])([2H])[2H] [Example 25, Methyl ((1R,3R)-3-(7-(4-((bis(methyl-d3)amino)methyl)phenyl)-8-(2,2-dimethyl-2,3-dihydrobenzofuran-5-yl)-3-(methyl-d3)-2-oxo-3,6-dihydroimidazo[4,5-d]pyrrolo[2,3-b]pyridin-1(2H)-yl)cyclopentyl)carbamate] | **** (selectivity of >1750-fold to ≤5000-fold) | 250 to 1250 nM | 0.5 to 1.5 µM·h | ≤ 300 nM | 50 to 500 µg/mL (≈ 80.9 to 809 µM) | 
4 | COC(=O)N[C@@H]1CC[C@@H](n2c(=O)n(C)c3cnc4[nH]c(-c5ccc(CN(C)C)cc5)c(-c5ccc(F)cc5)c4c32)C1 [Example 28, Methyl ((1R,3R)-3-(7-(4-((dimethylamino)methyl)phenyl)-8-(4-fluorophenyl)-3-methyl-2-oxo-3,6-dihydroimidazo[4,5-d]pyrrolo[2,3-b]pyridin-1(2H)-yl)cyclopentyl)carbamate] | **** (selectivity of >1750-fold to ≤5000-fold) | > 2500 nM | 0.5 to 1.5 µM·h | 300 to 800 nM | > 500 µg/mL | 
5 | [2H]C([2H])([2H])n1c(=O)n([C@@H]2CC[C@@H](NC(=O)OC)C2)c2c3c(-c4ccc5c(c4)COC5(C)C)c(-c4ccc(C(=O)N(C)C)cc4)[nH]c3ncc21 [Example 30, methyl ((1R,3R)-3-(8-(1,1-dimethyl-1,3-dihydroisobenzofuran-5-yl)-7-(4-(dimethylcarbamoyl)phenyl)-3-(methyl-d3)-2-oxo-3,6-dihydroimidazo[4,5-d]pyrrolo[2,3-b]pyridin-1(2H)-yl)cyclopentyl)carbamate] | ***** (selectivity of >5000-fold to ≤12500-fold) | 250 to 1250 nM | ≤ 0.5 µM·h | ≤ 300 nM |  | 
6 | CNC(=O)c1ccc(-c2[nH]c3ncc4c(c3c2-c2ccc3c(cnn3C(C)C)c2)n([C@@H]2CC[C@@H](NC(=O)OC)C2)c(=O)n4C)cc1F [Example 12, Methyl ((1R,3R)-3-(7-(3-fluoro-4-(methylcarbamoyl)phenyl)-8-(1-isopropyl-1H-indazol-5-yl)-3-methyl-2-oxo-3,6-dihydroimidazo[4,5-d]pyrrolo[2,3-b]pyridin-1(2H)-yl)cyclopentyl)carbamate] | ****** (selectivity of >12500-fold) | > 2500 nM |  | ≤ 300 nM |  | 
7 | COc1nn(C)cc1-c1[nH]c2ncc3c(c2c1-c1ccc2c(cnn2C)c1)n(C1CCOCC1)c(=O)n3C [Comparative Example A, reference compound] | ** (selectivity of >500-fold to ≤1500-fold) |  |  |  | ≤ 50 µg/mL | < 20 µg/mL
8 | COC(=O)N[C@@H]1CC[C@@H](n2c(=O)n(C)c3cnc4[nH]c(-c5ccc(C(=O)NC6(C(F)(F)F)CC6)c(F)c5)c(-c5ccc6c(cnn6C(C)C)c5)c4c32)C1 [Example 13, Methyl ((1R,3R)-3-(7-(3-fluoro-4-((1-(trifluoromethyl)cyclopropyl)carbamoyl)phenyl)-8-(1-isopropyl-1H-indazol-5-yl)-3-methyl-2-oxo-3,6-dihydroimidazo[4,5-d]pyrrolo[2,3-b]pyridin-1(2H)-yl)cyclopentyl)carbamate] | ***** (selectivity of >5000-fold to ≤12500-fold) | > 2500 nM |  | 300 to 800 nM |  | 
9 | COC(=O)N[C@@H]1CC[C@@H](n2c(=O)n(C)c3cnc4[nH]c(-c5ccc(C(=O)NC6CC6(F)F)c(F)c5)c(-c5ccc6c(cnn6C(C)C)c5)c4c32)C1 (stereo partly drawn) [Example 9, Methyl ((1R,3R)-3-(7-(4-((2,2-difluorocyclopropyl)carbamoyl)-3-fluorophenyl)-8-(1-isopropyl-1H-indazol-5-yl)-3-methyl-2-oxo-3,6-dihydroimidazo[4,5-d]pyrrolo[2,3-b]pyridin-1(2H)-yl)cyclopentyl)carbamate] | ****** (selectivity of >12500-fold) | > 2500 nM |  | 300 to 800 nM |  | 
10 | COc1nn(C)cc1-c1[nH]c2ncc3c(c2c1-c1ccc2c(cnn2C)c1)n([C@H]1CC[C@@H](CC#N)CC1)c(=O)n3C [E, reference compound] | ** (selectivity of >500-fold to ≤1500-fold) |  |  |  | ≤ 50 µg/mL | 
11 | CCNC(=O)c1ccc(-c2[nH]c3ncc4c(c3c2-c2ccc3c(cnn3C(C)C)c2)n([C@@H]2CC[C@@H](NC(=O)OC)C2)c(=O)n4C)cc1 [Example 23, Methyl ((1R,3R)-3-(7-(4-(ethylcarbamoyl)phenyl)-8-(1-isopropyl-1H-indazol-5-yl)-3-methyl-2-oxo-3,6-dihydroimidazo[4,5-d]pyrrolo[2,3-b]pyridin-1(2H)-yl)cyclopentyl)carbamate] | ***** (selectivity of >5000-fold to ≤12500-fold) | 1250 to 2500 nM |  | ≤ 300 nM |  | 
12 | [2H]C([2H])([2H])n1ncc2cc(-c3c(-c4cn(C)nc4OC)[nH]c4ncc5c(c34)n(C3CCOCC3)c(=O)n5C)ccc21 [Comparative Example B, reference compound] | ** (selectivity of >500-fold to ≤1500-fold) | > 2500 nM | > 1.5 µM·h |  | ≤ 50 µg/mL | 
13 | COC(=O)N[C@@H]1CC[C@@H](n2c(=O)n(C)c3cnc4[nH]c(-c5ccc(C(=O)NC6CC6)c(F)c5)c(-c5ccc6c(cnn6C(C)C)c5)c4c32)C1 [Example 8, Methyl ((1R,3R)-3-(7-(4-(cyclopropylcarbamoyl)-3-fluorophenyl)-8-(1-isopropyl-1H-indazol-5-yl)-3-methyl-2-oxo-3,6-dihydroimidazo[4,5-d]pyrrolo[2,3-b]pyridin-1(2H)-yl)cyclopentyl)carbamate] | ****** (selectivity of >12500-fold) | > 2500 nM |  | 300 to 800 nM |  | 
